Source: ChEMBL document CHEMBL1201862, “PubChem BioAssay data set” (2004)
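Compound exposure: 48 hours, 5 concentrations, 96-well plates. GI50 = concentration required for 50% inhibition of growth.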 Active and inactive are the calls of the source. Cut-off read from the data, not from the text of the source: active = GI50 up to about 1.1 µM and inactive = higher.

Legend:
Assay in all cases: NCI tumour cell line growth inhibition, 48 h
OVCAR-5 = tested on: OVCAR-5
PC-3 = tested on: PC-3
MDA-MB-435 = tested on: MDA-MB-435
SF-268 = tested on: SF-268
COLO 205 = tested on: COLO 205
MOLT-4 = tested on: MOLT-4
Malme-3M = tested on: Malme-3M
SF-295 = tested on: SF-295
NCI-H226 = tested on: NCI-H226
T47D = tested on: T47D
CAKI-1 = tested on: CAKI-1
SK-OV-3 = tested on: SK-OV-3
Hs-578T = tested on: Hs-578T
A549 = tested on: A549
LOX IMVI = tested on: LOX IMVI
U-251 = tested on: U-251
NCI/ADR-RES = tested on: NCI/ADR-RES
HCT-15 = tested on: HCT-15
HOP-92 = tested on: HOP-92
DU-145 = tested on: DU-145
HCC 2998 = tested on: HCC 2998
OVCAR-3 = tested on: OVCAR-3
IGROV-1 = tested on: IGROV-1
TK-10 = tested on: TK-10
UACC-257 = tested on: UACC-257
SF-539 = tested on: SF-539
CCRF-CEM = tested on: CCRF-CEM
K562 = tested on: K562
HCT-116 = tested on: HCT-116
M14 = tested on: M14
SNB-75 = tested on: SNB-75
OVCAR-8 = tested on: OVCAR-8
OVCAR-4 = tested on: OVCAR-4
NCI-H460 = tested on: NCI-H460
HT-29 = tested on: HT-29
SK-MEL-5 = tested on: SK-MEL-5
BT-549 = tested on: BT-549
HL-60 = tested on: HL-60
EKVX = tested on: EKVX
MCF7 = tested on: MCF7
SK-MEL-2 = tested on: SK-MEL-2
UACC-62 = tested on: UACC-62
HOP-62 = tested on: HOP-62
A498 = tested on: A498
KM12 = tested on: KM12
786-0 = tested on: 786-0
RPMI-8226 = tested on: RPMI-8226
SW-620 = tested on: SW-620
RXF 393 = tested on: RXF 393
MDA-MB-231 = tested on: MDA-MB-231
SK-MEL-28 = tested on: SK-MEL-28
SR = tested on: SR
ACHN = tested on: ACHN
UO-31 = tested on: UO-31
SN12C = tested on: SN12C
NCI-H522 = tested on: NCI-H522
NCI-H23 = tested on: NCI-H23
MDA-N = tested on: MDA-N
SNB-19 = tested on: SNB-19

`O=[N+]([O-])c1cccnc1-n1cnc2ccccc21` was tested, and the GI50 (OVCAR-5) was > 100 µM (inactive), the GI50 (PC-3) was > 100 µM (inactive) and the GI50 (MDA-MB-435) was > 100 µM (inactive). For the same compound, the GI50 (SF-268) was > 100 µM (inactive), the GI50 (COLO 205) was > 100 µM (inactive) and the GI50 (MOLT-4) was > 100 µM (inactive). For the same compound, the GI50 (Malme-3M) was > 100 µM (inactive), the GI50 (SF-295) was > 100 µM (inactive) and the GI50 (NCI-H226) was > 100 µM (inactive). For the same compound, the GI50 (T47D) was > 100 µM (inactive), the GI50 (CAKI-1) was > 100 µM (inactive) and the GI50 (SK-OV-3) was > 100 µM (inactive). For the same compound, the GI50 (Hs-578T) was > 100 µM (inactive), the GI50 (A549) was > 100 µM (inactive) and the GI50 (LOX IMVI) was > 100 µM (inactive). The GI50 (U-251) was > 100 µM (inactive), the GI50 (NCI/ADR-RES) was > 100 µM (inactive) and the GI50 (HCT-15) was greater than 100 µM. For the same compound, the GI50 (HOP-92) was > 100 µM (inactive), the GI50 (DU-145) was > 100 µM (inactive) and the GI50 (HCC 2998) was > 100 µM (inactive). For the same compound, the GI50 (OVCAR-3) was 54.6 µM (inactive), the GI50 (IGROV-1) was > 100 µM (inactive) and the GI50 (TK-10) was > 100 µM (inactive). The GI50 (UACC-257) was > 100 µM (inactive), the GI50 (SF-539) was > 100 µM (inactive) and the GI50 (CCRF-CEM) was > 100 µM (inactive). The GI50 (K562) was > 100 µM (inactive), the GI50 (HCT-116) was > 100 µM (inactive) and the GI50 (M14) was > 100 µM (inactive). For the same compound, the GI50 (SNB-75) was > 100 µM (inactive), the GI50 (OVCAR-8) was > 100 µM (inactive) and the GI50 (OVCAR-4) was > 100 µM (inactive). The GI50 (NCI-H460) was > 100 µM (inactive), the GI50 (HT-29) was > 100 µM (inactive) and the GI50 (SK-MEL-5) was > 100 µM (inactive). The GI50 (BT-549) was > 100 µM (inactive), the GI50 (HL-60) was 48 µM (inactive) and the GI50 (EKVX) was > 100 µM (inactive). For the same compound, the GI50 (MCF7) was > 100 µM (inactive), the GI50 (SK-MEL-2) was > 100 µM (inactive) and the GI50 (UACC-62) was > 100 µM (inactive). The GI50 (HOP-62) was > 100 µM (inactive), the GI50 (A498) was > 100 µM (inactive) and the GI50 (KM12) was > 100 µM (inactive). For the same compound, the GI50 (786-0) was > 100 µM (inactive), the GI50 (RPMI-8226) was > 100 µM (inactive) and the GI50 (SW-620) was > 100 µM (inactive). For the same compound, the GI50 (RXF 393) was > 100 µM (inactive), the GI50 (MDA-MB-231) was > 100 µM (inactive) and the GI50 (SK-MEL-28) was > 100 µM (inactive). The GI50 (SR) was > 100 µM (inactive).
For `CCCCNC(=S)Nc1nc(C(=O)NNC(=S)NCC)cs1`, the GI50 (OVCAR-5) was > 100 µM (inactive), the GI50 (PC-3) was > 100 µM (inactive) and the GI50 (MDA-MB-435) was > 100 µM (inactive). For the same compound, the GI50 (SF-268) was > 100 µM (inactive), the GI50 (COLO 205) was 62.5 µM (inactive) and the GI50 (MOLT-4) was 50.4 µM (inactive). For the same compound, the GI50 (Malme-3M) was > 100 µM (inactive), the GI50 (SF-295) was > 100 µM (inactive) and the GI50 (NCI-H226) was > 10 µM (inactive). The GI50 (T47D) was 16.7 µM (inactive), the GI50 (ACHN) was 31.6 µM (inactive) and the GI50 (CAKI-1) was 63.5 µM (inactive). For the same compound, the GI50 (UO-31) was 31.6 µM (inactive), the GI50 (SK-OV-3) was > 100 µM (inactive) and the GI50 (A549) was > 100 µM (inactive). For the same compound, the GI50 (LOX IMVI) was 33.2 µM (inactive), the GI50 (U-251) was > 100 µM (inactive) and the GI50 (NCI/ADR-RES) was 26.5 µM (inactive). For the same compound, the GI50 (HCT-15) was 23 µM, the GI50 (DU-145) was 73.5 µM (inactive) and the GI50 (HCC 2998) was > 100 µM (inactive). The GI50 (OVCAR-3) was 44 µM (inactive), the GI50 (IGROV-1) was 78.5 µM (inactive) and the GI50 (TK-10) was > 100 µM (inactive). For the same compound, the GI50 (UACC-257) was > 100 µM (inactive), the GI50 (SN12C) was 56.8 µM (inactive) and the GI50 (SF-539) was 73.5 µM (inactive). For the same compound, the GI50 (CCRF-CEM) was 44 µM (inactive), the GI50 (NCI-H522) was > 100 µM (inactive) and the GI50 (HCT-116) was 53.1 µM (inactive). The GI50 (M14) was > 100 µM (inactive), the GI50 (SNB-75) was > 100 µM (inactive) and the GI50 (OVCAR-8) was > 100 µM (inactive). The GI50 (OVCAR-4) was 73.1 µM (inactive), the GI50 (HT-29) was 53.8 µM (inactive) and the GI50 (SK-MEL-5) was 25.7 µM (inactive). For the same compound, the GI50 (BT-549) was > 100 µM (inactive), the GI50 (EKVX) was 16.5 µM (inactive) and the GI50 (MCF7) was > 100 µM (inactive). For the same compound, the GI50 (SK-MEL-2) was > 100 µM (inactive), the GI50 (UACC-62) was > 100 µM (inactive) and the GI50 (HOP-62) was > 100 µM (inactive). The GI50 (A498) was > 100 µM (inactive), the GI50 (KM12) was 76.9 µM (inactive) and the GI50 (786-0) was > 100 µM (inactive). The GI50 (RPMI-8226) was > 100 µM (inactive), the GI50 (NCI-H23) was > 100 µM (inactive) and the GI50 (SW-620) was 97.9 µM (inactive). The GI50 (MDA-MB-231) was 99.8 µM (inactive), the GI50 (MDA-N) was 82 µM (inactive) and the GI50 (SR) was 6.73 µM (inactive).
For `CCN(CC)CC(=O)Nc1c(C(N)=O)nnn1Cc1cc(Cl)c(C(=O)c2ccc(Cl)cc2)c(Cl)c1`, the GI50 (OVCAR-5) was 19.5 µM (inactive), the GI50 (PC-3) was 16.8 µM (inactive) and the GI50 (MDA-MB-435) was 18.5 µM (inactive). The GI50 (SF-268) was 19.2 µM (inactive), the GI50 (COLO 205) was 16.9 µM (inactive) and the GI50 (MOLT-4) was 16.3 µM (inactive). The GI50 (SF-295) was 17.4 µM (inactive), the GI50 (NCI-H226) was 14.4 µM (inactive) and the GI50 (T47D) was 15.9 µM (inactive). The GI50 (ACHN) was 29.7 µM (inactive), the GI50 (CAKI-1) was 22.5 µM (inactive) and the GI50 (UO-31) was 13.7 µM (inactive). For the same compound, the GI50 (SK-OV-3) was 21.6 µM (inactive), the GI50 (Hs-578T) was 14.3 µM (inactive) and the GI50 (A549) was 22.3 µM (inactive). The GI50 (LOX IMVI) was 16.1 µM (inactive), the GI50 (U-251) was 19.5 µM (inactive) and the GI50 (NCI/ADR-RES) was 15.8 µM (inactive). The GI50 (HCT-15) was 16.6 µM, the GI50 (HOP-92) was 20.7 µM (inactive) and the GI50 (DU-145) was 30.8 µM (inactive). The GI50 (HCC 2998) was 17.7 µM (inactive), the GI50 (OVCAR-3) was 16.9 µM (inactive) and the GI50 (IGROV-1) was 21.4 µM (inactive). For the same compound, the GI50 (TK-10) was 22.8 µM (inactive), the GI50 (UACC-257) was 18.1 µM (inactive) and the GI50 (SN12C) was 22.6 µM (inactive). The GI50 (SF-539) was 16.5 µM (inactive), the GI50 (CCRF-CEM) was 18 µM (inactive) and the GI50 (K562) was 17.3 µM (inactive). The GI50 (NCI-H522) was 18.1 µM (inactive), the GI50 (HCT-116) was 16.5 µM (inactive) and the GI50 (M14) was 16.9 µM (inactive). For the same compound, the GI50 (SNB-75) was 21 µM (inactive), the GI50 (OVCAR-8) was 17.7 µM (inactive) and the GI50 (OVCAR-4) was 31 µM (inactive). For the same compound, the GI50 (HT-29) was 19.6 µM (inactive), the GI50 (SK-MEL-5) was 16.4 µM (inactive) and the GI50 (SNB-19) was 34.9 µM (inactive). The GI50 (BT-549) was 17.8 µM (inactive), the GI50 (HL-60) was 15.5 µM (inactive) and the GI50 (EKVX) was 27.2 µM (inactive). For the same compound, the GI50 (MCF7) was 17.1 µM (inactive), the GI50 (SK-MEL-2) was 14.9 µM (inactive) and the GI50 (UACC-62) was 17.6 µM (inactive). The GI50 (HOP-62) was 18.6 µM (inactive), the GI50 (A498) was 37.9 µM (inactive) and the GI50 (KM12) was 18.8 µM (inactive). The GI50 (786-0) was 16.1 µM (inactive), the GI50 (RPMI-8226) was 22.3 µM (inactive) and the GI50 (NCI-H23) was 14.6 µM (inactive). For the same compound, the GI50 (SW-620) was 19.2 µM (inactive), the GI50 (RXF 393) was 10.4 µM (inactive) and the GI50 (MDA-MB-231) was 16.9 µM (inactive). For the same compound, the GI50 (SK-MEL-28) was 18.5 µM (inactive) and the GI50 (SR) was 23.8 µM (inactive).
